Data set [1] concerns the target T1, Aβ(1-40) peptide (Homo sapiens, UniProt P05067). The data set is described as follows: Thioflavin T fluorescence assay of Aβ(1-40) peptide aggregation. The following applies: for effect on Aβ(1-40) peptide aggregation: different concentrations of ligand.
Data set [2] has as its target nicotinic acetylcholine receptor (Mus musculus, UniProt P02716+P04756+P04760+P09690). Conditions: cited from earlier work.
Data set [3] deals with cardiovascular functions. The following applies: anesthetized rats; cited from earlier work.
Data set [4] concerns cardiovascular functions. Conditions: squirrel monkeys; cited from earlier work.
The test system of another data set is cardiac myocytes. The following applies: cited from earlier work.
For data set [5] the following is noted: conscious rats; cited from earlier work.
Data set [6] deals with T1, Aβ(1-40) peptide. The data set is described as follows: Electrophoretic mobility shift (gel-shift) binding assay with [3H]-cocaine. Conditions: 7-μM [3H]-cocaine, 125-μM Aβ(1-40), pH 7.4; preliminary results. The source says:
The gel was cast in a vertical electrophoresis system of dimensions 7×8×0.15 cm and run at 100 V for 2 hr at room temperature. Lane I contains 7-μM [^3H]-cocaine only and Lane II contains 7-μM [^3H]-cocaine and 125-μM Aβ(1-40) peptide. The gel was then phosphor imaged; the contrast of the image was enhanced using ImageJ 1.34, in the process of which the contrast of the band streaks compared to background was lost. The square boxes correspond to the free [^3H]-cocaine trapped in the well; the circle corresponds to the [^3H]-cocaine bound to Aβ(1-40). […] The position of the peptide corresponded to the [^3H]-cocaine bound to Aβ(1-40) (circle) in the phosphorimage in FIG. 3A.
On the other hand, the theoretical isolectric point of the Aβ(1-40) peptide is 5.37 (Wiltfang et al., “Highly Conserved and Disease-Specific Patterns of Carboxyterminally Truncated Aβ Peptides 1-37/38/39 in Addition to 1-40/42 in Alzheimer's Disease and in Patients with Chronic Neuroinflammation,” J. Neurochem. 81:481-496 (2002), which is hereby incorporated by reference in its entirety). […] The imaging plate is then scanned by using a Molecular Dynamics Storm 860 PhosphorImager, and band intensities are quantified by using the IMAGEQUANT software from Molecular Dynamics. […]
Background: Mobility shift assays separate free from complexed probe on a gel.

In data set [7] the target is T1, Aβ(1-40) peptide. Conditions: Ylera et al. 2002; read-out: Kd(amyloid) for the Aβ(1-40) peptide; cited from earlier work.
The target of data set [8] is T2, muscle type nicotinic acetylcholine receptor expressed in BC3H1 cells (Mus musculus, UniProt P02716+P04756+P04760+P09690).
T2 construct: nicotinic acetylcholine receptors expressed on the surface of BC3H1 cells; endogenous in cells; host or cells: BC3H1 cells
Kind of data set: Whole-cell current recording, cell-flow technique, carbamoylcholine-induced currents. In kind it is cell-based. The following applies: 100-μM carbamoylcholine, listed as B55.
Experimental: Experiments were conducted at ˜22° C., −60 mV, and pH 7.4. The currents were induced by application of 100-μM carbamoylcholine only (lighter rising and falling line) or by a 2-second preincubation of the cells with 1-μM aptamer B55 followed by coapplication of the aptamer (at the same concentration used in preincubation) with 100-μM carbamoylcholine for 6 s (darker rising and falling line). The upper traces parallel to the abscissa represent the current amplitudes corrected for receptor desensitization that occurs during the rising phase. […] AO is the maximum current amplitude in the presence of 100-μM carbamoylcholine, and AI the maximum current amplitude in the presence of the same concentration of carbamoylcholine and different concentrations of aptamer B55. The whole-cell current was corrected for receptor desensitization. Each data point is the average of 2-4 measurements with at least two cells.
Carbamoylcholine-induced currents were recorded using the whole-cell configuration at room temperature (22-23° C.), pH 7.4, and a transmembrane voltage of −60 mV. The currents were amplified using an Axopatch 200B amplifier (Axon Instruments, Union City, Calif.) and filtered at 1 kHz (using a four-pole low-pass Bessel filter incorporated in the Axopatch 200B amplifier). […]

The values that follow come from patent US9233106B2, “Inhibition of beta-amyloid peptide aggregation” (CORNELL RESEARCH FOUNDATION, INC., priority 2006, dated 2016).

Entries after “also recorded” stand apart in the source; their conditions may differ.

T1 sequence (P05067 672-711 limits assumed): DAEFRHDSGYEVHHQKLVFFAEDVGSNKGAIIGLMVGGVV
T2 sequence (P04756 21-457): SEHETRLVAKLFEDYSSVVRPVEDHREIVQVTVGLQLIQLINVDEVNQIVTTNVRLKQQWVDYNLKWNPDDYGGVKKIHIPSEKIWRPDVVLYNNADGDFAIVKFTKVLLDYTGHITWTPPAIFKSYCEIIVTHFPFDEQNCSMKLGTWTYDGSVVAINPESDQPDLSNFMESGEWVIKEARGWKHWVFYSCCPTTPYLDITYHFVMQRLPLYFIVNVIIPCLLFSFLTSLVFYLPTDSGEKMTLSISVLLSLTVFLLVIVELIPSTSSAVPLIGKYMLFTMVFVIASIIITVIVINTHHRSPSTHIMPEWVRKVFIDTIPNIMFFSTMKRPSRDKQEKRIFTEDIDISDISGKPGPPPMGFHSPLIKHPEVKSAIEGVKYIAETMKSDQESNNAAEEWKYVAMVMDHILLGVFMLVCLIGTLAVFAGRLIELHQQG
T2 sequence (P09690 24-501): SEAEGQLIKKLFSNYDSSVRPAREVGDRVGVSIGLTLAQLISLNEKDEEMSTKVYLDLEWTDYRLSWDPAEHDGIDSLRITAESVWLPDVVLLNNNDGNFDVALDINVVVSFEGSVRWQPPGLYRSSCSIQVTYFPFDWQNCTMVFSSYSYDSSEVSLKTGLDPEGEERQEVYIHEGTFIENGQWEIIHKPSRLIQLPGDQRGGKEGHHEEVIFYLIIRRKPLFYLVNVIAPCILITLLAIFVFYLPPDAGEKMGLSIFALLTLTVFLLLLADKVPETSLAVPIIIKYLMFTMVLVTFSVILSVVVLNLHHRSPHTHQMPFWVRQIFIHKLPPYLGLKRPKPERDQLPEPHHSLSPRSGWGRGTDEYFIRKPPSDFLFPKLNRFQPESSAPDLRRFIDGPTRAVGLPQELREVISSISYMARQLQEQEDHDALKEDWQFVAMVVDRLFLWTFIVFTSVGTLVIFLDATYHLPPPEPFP
T2 sequence (P04760 23-519): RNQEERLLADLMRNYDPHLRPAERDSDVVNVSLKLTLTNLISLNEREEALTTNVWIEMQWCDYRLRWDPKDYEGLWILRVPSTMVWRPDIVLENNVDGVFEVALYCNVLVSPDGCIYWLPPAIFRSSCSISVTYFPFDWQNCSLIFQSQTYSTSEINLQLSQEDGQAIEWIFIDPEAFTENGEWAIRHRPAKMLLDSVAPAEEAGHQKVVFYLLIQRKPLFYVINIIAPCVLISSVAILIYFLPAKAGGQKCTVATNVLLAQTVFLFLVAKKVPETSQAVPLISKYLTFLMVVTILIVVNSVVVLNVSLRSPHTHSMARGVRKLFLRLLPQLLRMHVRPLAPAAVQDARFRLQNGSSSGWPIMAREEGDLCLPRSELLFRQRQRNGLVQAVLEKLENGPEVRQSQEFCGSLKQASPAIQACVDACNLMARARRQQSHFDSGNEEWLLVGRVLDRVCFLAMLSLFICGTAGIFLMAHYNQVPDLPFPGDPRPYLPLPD
T2 sequence (P02716 25-520): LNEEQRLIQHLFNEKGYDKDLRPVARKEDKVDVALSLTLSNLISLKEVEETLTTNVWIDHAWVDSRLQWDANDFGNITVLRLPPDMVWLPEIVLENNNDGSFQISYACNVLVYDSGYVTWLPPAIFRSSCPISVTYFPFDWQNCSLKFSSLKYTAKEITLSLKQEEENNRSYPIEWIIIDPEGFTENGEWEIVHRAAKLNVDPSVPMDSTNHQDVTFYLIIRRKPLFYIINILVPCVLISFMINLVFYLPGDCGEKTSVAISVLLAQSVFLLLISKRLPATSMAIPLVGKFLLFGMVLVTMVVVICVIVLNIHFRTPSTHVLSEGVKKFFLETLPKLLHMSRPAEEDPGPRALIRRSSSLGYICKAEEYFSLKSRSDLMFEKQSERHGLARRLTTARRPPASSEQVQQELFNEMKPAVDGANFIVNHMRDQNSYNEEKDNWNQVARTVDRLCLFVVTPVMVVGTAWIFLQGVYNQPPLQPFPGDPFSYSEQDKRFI
Chain of nicotinic acetylcholine receptor (P04756 21-457): as the sequence (P04756 21-457) above
Chain of nicotinic acetylcholine receptor (P09690 24-501): as the sequence (P09690 24-501) above
Chain of nicotinic acetylcholine receptor (P04760 23-519): as the sequence (P04760 23-519) above
Chain of nicotinic acetylcholine receptor (P02716 25-520): as the sequence (P02716 25-520) above

For the molecule `C[C@]12N[C@H](Cc3ccccc31)c1ccccc12` [MK-801, dizocilpine, reference compound], the “effect on Aβ(1-40) peptide aggregation” value on Aβ(1-40) peptide [1] (50-μM Aβ(1-40), 37° C., 2 days) is listed as “inhibit aggregation of Aβ(1-40) in a dose-dependent manner; also recorded: dose-dependent inhibition”.

In the case of `COC(=O)C1C(OC(C)=O)CC2CCC1N2C` (stereo not shown) [reference compound], in data set [2], the “alleviation of cocaine inhibition of the nicotinic acetylcholine receptor” value was “does not alleviate cocaine inhibition”. The “effect on Aβ(1-40) peptide aggregation” value on Aβ(1-40) peptide [1] (50-μM Aβ(1-40), 37° C., 2 days) is recorded as “does not inhibit aggregation; also recorded: dose-dependent acceleration”.

Consider `COC(=O)C1=C(c2ccccc2)C(=O)C2CC(S(=O)(=O)c3ccccc3)C1N2C` (stereo not shown) [RCS-III-202A], for which, on Aβ(1-40) peptide [1] (50-μM Aβ(1-40), 37° C., 2 days), the “effect on Aβ(1-40) peptide aggregation” value is given as “inhibit aggregation”.

Take “UUCACCG ((i.e., UUCACCG); as printed in the source, key not given here)”: the “effect on Aβ(1-40) peptide aggregation at 500 μM” value with Aβ(1-40) peptide [1] (500-μM oligonucleotide, 50-μM Aβ(1-40), 37° C., 2 days) is on record as “abolished amyloid aggregation”.

`c1ccc(C2(N3CCCCC3)CCCCC2)cc1` [PCP, phencyclidine, reference compound]: the “effect on Aβ(1-40) peptide aggregation at 1 mM” value on Aβ(1-40) peptide [1] (1-mM PCP, 50-μM Aβ(1-40), 37° C., 2 days) is “abrogates Aβ aggregation; also recorded: abolished amyloid aggregation”.

Turning to `COC(=O)C1=CC(=O)C2CC(S(=O)(=O)c3ccccc3)C1N2C` (stereo not shown) [RCS-III-140A], on Aβ(1-40) peptide [1] (50-μM Aβ(1-40), 37° C., 2 days), the “effect on Aβ(1-40) peptide aggregation” value was “inhibit aggregation”.

On to `CN1C2CC(S(=O)(=O)c3ccccc3)C1C(C(=O)[O-])=C(c1ccccc1)C2=O.[Li+]` (stereo not shown) [RCS-III-218], for which the “effect on Aβ(1-40) peptide aggregation” value on Aβ(1-40) peptide [1] (50-μM Aβ(1-40), 37° C., 2 days) was “inhibit aggregation”.

Consider `CN1C2CCC1C(C(=O)O)C(c1ccc(Cl)cc1)C2` (stereo not shown) [RTI-4229-70], for which the “effect on Aβ(1-40) peptide aggregation” value at Aβ(1-40) peptide [1] (50-μM Aβ(1-40), 37° C., 2 days) was “dose-dependent inhibition”; on Aβ(1-40) peptide [1] (50-μM Aβ(1-40), 37° C., 2 days, listed as RTI 4220-70) it was “inhibit aggregation of Aβ(1-40) in a dose-dependent manner”.

Consider `COC(=O)C1C(O)CC2CCC1N2C` (stereo not shown), for which the “dose with no effect on cardiovascular functions in vivo, i.v. infusion” value in the data set on cardiovascular functions [3] is given as “up to 1.5 mg/kg/min”. In addition, in the data set on cardiovascular functions [4], the “dose with no effect on cardiovascular functions in vivo, i.v. bolus” value is listed as “up to 10 mg/kg”. Moreover, the “concentration with no effect on cardiovascular functions in vitro” value in the data set on cardiac myocytes is “up to 100 μM”. The “effect on Aβ(1-40) peptide aggregation” value at Aβ(1-40) peptide [1] (50-μM Aβ(1-40), 37° C., 2 days) is on record as “inhibit aggregation of Aβ(1-40) in a dose-dependent manner; also recorded: dose-dependent inhibition”. Besides, the “concentration required to abolish the aggregation of Aβ(1-40) in the brain (estimated therapeutic concentration)” value on Aβ(1-40) peptide [1] (order-of-magnitude approximation calculated from FIG. 4A and CSF Aβ(1-40) concentration) is recorded as about 40 ng/g. Besides, in data set [5], the “brain tissue concentration corresponding to the lowest toxic daily dose” value is on record as 478.43±57.89.

On to `CN1C2CC(S(=O)(=O)c3ccccc3)C1C(C(=O)[O-])=CC2=O.[Li+]` (stereo not shown) [RCS-III-143], for which the “effect on Aβ(1-40) peptide aggregation” value on Aβ(1-40) peptide [1] (50-μM Aβ(1-40), 37° C., 2 days) is reported as “inhibit aggregation”.

In the case of `COC(=O)C1C(OC(=O)c2ccccc2)CC2CCC1N2C` (stereo not shown) [cocaine], the “binding of cocaine to the Aβ(1-40) peptide” value at Aβ(1-40) peptide [6] is “binds; also recorded: direct binding”. Besides, the “effect on Aβ(1-40) peptide aggregation” value on Aβ(1-40) peptide [1] (50-μM Aβ(1-40), 37° C., 2 days) is on record as “dose-dependent inhibition”.

As to `CN1C2CCC1C(C(=O)O)C(O)C2` (stereo not shown) [ecgonine], the “effect on Aβ(1-40) peptide aggregation” value on Aβ(1-40) peptide [1] (50-μM Aβ(1-40), 37° C., 2 days) was “inhibit aggregation of Aβ(1-40) in a dose-dependent manner; also recorded: dose-dependent inhibition”.

B1: 5′-UUUACCGUAAGGCCUGUCUUCGUUUGACAGCGGCUUGUUGACCCUCACACUUUGUACCUGCUGCCAA-3′ (nucleic acid)
chain: UUUACCGUAAGGCCUGUCUUCGUUUGACAGCGGCUUGUUGACCCUCACACUUUGUACCUGCUGCCAA
modifications: chemistry not given here
With B1, the Kd (commonly the constant that tells how readily two partners part at equilibrium) in the data set with Aβ(1-40) peptide [7] is 29 nM. In addition, the “inhibition of carbamoylcholine-induced currents from the nicotinic acetylcholine receptor” value in data set [8] is on record as “inhibited carbamoylcholine-induced currents from the nicotinic acetylcholine receptor in a dose-dependent manner; also recorded: inhibition”.
